According to patent US6613718B2, “Aryl ether derivatives and processes for their preparation and herbicidal and desiccant compositions containing them” (Ishihara Sangyo Kaisha, Ltd., priority 2001, dated 2003):

Experiments:
Format in all cases: in vivo
Conditions in all cases: 14 days after application
[1] = tested on: barnyardgrass (Echinochloa crus-galli, ECHCG); experiment: Pre-emerge greenhouse herbicide activity screening, phytotoxicity rating
How it was run: (§1)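 Rates of 15 to 1000 g ai/ha were applied by mechanized flat-fan spray. Phytotoxicity was then judged visually at 14 days using a 0-100 scale.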

[2] = tested on: common ragweed (Ambrosia artemisiifolia L., AMBEL); experiment: as above
How it was run: as §1

[3] = tested on: green foxtail (Setaria viridis, SETVI); experiment: as above
How it was run: as §1

[4] = tested on: ivyleaf morningglory (Ipomoea hederacea, IPOHE); experiment: as above
How it was run: as §1

[5] = tested on: johnsongrass (Sorghum halepense, SORHA); experiment: as above
How it was run: as §1

[6] = tested on: lambsquarters (Chenopodium album, CHEAL); experiment: as above
How it was run: as §1

[7] = tested on: large crabgrass (Digitaria sanguinalis, DIGSA); experiment: as above
How it was run: as §1

[8] = tested on: redroot pigweed (Amaranthus retroflexus, AMARE); experiment: as above
How it was run: as §1

[9] = tested on: sicklepod (Cassia obtusifolia, CASOB); experiment: as above
How it was run: as §1

[10] = tested on: velvetleaf (Abutilon theophrasti, ABUTH); experiment: as above
How it was run: as §1

[11] = tested on: field corn (Zea mays L., var. Dekalb 535, CORN); experiment: Pre-emerge greenhouse screening, crop safety (phytotoxicity rating)
How it was run: as §1

[12] = tested on: soybean (Glycine max L., var. Pella 86, SOY); experiment: as above
How it was run: as §1

[13] = tested on: upland rice (Oryza sp., var.Tebonnet, RICE); experiment: as above
How it was run: as §1

[14] = tested on: barnyardgrass (Echinochloa crus-galli, ECHCG); experiment: Post-emerge greenhouse herbicide activity screening, phytotoxicity rating
How it was run: as §1

[15] = tested on: common ragweed (Ambrosia artemisiifolia L., AMBEL); experiment: as above
How it was run: as §1

[16] = tested on: green foxtail (Setaria viridis, SETVI); experiment: as above
How it was run: as §1

[17] = tested on: ivyleaf morningglory (Ipomoea hederacea, IPOHE); experiment: as above
How it was run: as §1

[18] = tested on: johnsongrass (Sorghum halepense, SORHA); experiment: as above
How it was run: as §1

[19] = tested on: lambsquarters (Chenopodium album, CHEAL); experiment: as above
How it was run: as §1

[20] = tested on: large crabgrass (Digitaria sanguinalis, DIGSA); experiment: as above
How it was run: as §1

[21] = tested on: redroot pigweed (Amaranthus retroflexus, AMARE); experiment: as above
How it was run: as §1

[22] = tested on: sicklepod (Cassia obtusifolia, CASOB); experiment: as above
How it was run: as §1

[23] = tested on: velvetleaf (Abutilon theophrasti, ABUTH); experiment: as above
How it was run: as §1

[24] = tested on: field corn (Zea mays L., var. Dekalb 535, CORN); experiment: Post-emerge greenhouse screening, crop safety / corn selectivity (phytotoxicity rating)
How it was run: as §1

[25] = tested on: soybean (Glycine max L., var. Pella 86, SOY); experiment: Post-emerge greenhouse screening, crop safety (phytotoxicity rating)
How it was run: as §1

[26] = tested on: upland rice (Oryza sp., var.Tebonnet, RICE); experiment: as above
How it was run: as §1

With `Fc1cc(Cl)c(Oc2ncccn2)cc1-c1nn2c(c1Cl)CCCC2` [Compound 6-1, 3-Chloro-2-[4-chloro-2-fluoro-5-(2-pyrimidinyloxy)phenyl]-4,5,6,7-tetrahydro-pyrazolo[1,5-a]pyridine] the “ECHCG phytotoxicity rating (0-100 scale)” value ([1]; 125 g ai/ha) was 99, the “ECHCG phytotoxicity rating (0-100 scale)” value ([1]; 250 g ai/ha) was 100 and the “AMBEL phytotoxicity rating (0-100 scale)” value ([2]; 125 g ai/ha) was 100. For the same molecule, the “AMBEL phytotoxicity rating (0-100 scale)” value ([2]; 250 g ai/ha) was 100, the “SETVI phytotoxicity rating (0-100 scale)” value ([3]; 125 g ai/ha) was 100 and the “SETVI phytotoxicity rating (0-100 scale)” value ([3]; 250 g ai/ha) was 100. The “IPOHE phytotoxicity rating (0-100 scale)” value ([4]; 125 g ai/ha) was 99, the “IPOHE phytotoxicity rating (0-100 scale)” value ([4]; 250 g ai/ha) was 100 and the “SORHA phytotoxicity rating (0-100 scale)” value ([5]; 125 g ai/ha) was 100. For the same molecule, the “SORHA phytotoxicity rating (0-100 scale)” value ([5]; 250 g ai/ha) was 100, the “CHEAL phytotoxicity rating (0-100 scale)” value ([6]; 125 g ai/ha) was 100 and the “CHEAL phytotoxicity rating (0-100 scale)” value ([6]; 250 g ai/ha) was 100. The “DIGSA phytotoxicity rating (0-100 scale)” value ([7]; 125 g ai/ha) was 100, the “DIGSA phytotoxicity rating (0-100 scale)” value ([7]; 250 g ai/ha) was 100 and the “AMARE phytotoxicity rating (0-100 scale)” value ([8]; 125 g ai/ha) was 100. The “AMARE phytotoxicity rating (0-100 scale)” value ([8]; 250 g ai/ha) was 100, the “CASOB phytotoxicity rating (0-100 scale)” value ([9]; 125 g ai/ha) was 100 and the “CASOB phytotoxicity rating (0-100 scale)” value ([9]; 250 g ai/ha) was 100. The “ABUTH phytotoxicity rating (0-100 scale)” value ([10]; 125 g ai/ha) was 100, the “ABUTH phytotoxicity rating (0-100 scale)” value ([10]; 250 g ai/ha) was 100 and the “CORN crop damage, phytotoxicity rating (0-100 scale)” value (shortened to “CORN crop damage”) ([11]; 125 g ai/ha) was 40. The “CORN crop damage” value ([11]; 250 g ai/ha) was 50, the “SOY crop damage, phytotoxicity rating (0-100 scale)” value (“SOY crop damage” for short) ([12]; 125 g ai/ha) was 25 and the “SOY crop damage” value ([12]; 250 g ai/ha) was 60. The “RICE crop damage, phytotoxicity rating (0-100 scale)” value (shortened to “RICE crop damage”) ([13]; 125 g ai/ha) was 85, the “RICE crop damage” value ([13]; 250 g ai/ha) was 95 and the “ECHCG phytotoxicity rating (0-100 scale)” value ([14]; 125 g ai/ha) was 90. The “ECHCG phytotoxicity rating (0-100 scale)” value ([14]; 250 g ai/ha) was 100, the “AMBEL phytotoxicity rating (0-100 scale)” value ([15]; 125 g ai/ha) was 85 and the “AMBEL phytotoxicity rating (0-100 scale)” value ([15]; 250 g ai/ha) was 90. The “SETVI phytotoxicity rating (0-100 scale)” value ([16]; 125 g ai/ha) was 100, the “SETVI phytotoxicity rating (0-100 scale)” value ([16]; 250 g ai/ha) was 100 and the “IPOHE phytotoxicity rating (0-100 scale)” value ([17]; 125 g ai/ha) was 100. For the same molecule, the “IPOHE phytotoxicity rating (0-100 scale)” value ([17]; 250 g ai/ha) was 100, the “SORHA phytotoxicity rating (0-100 scale)” value ([18]; 125 g ai/ha) was 75 and the “SORHA phytotoxicity rating (0-100 scale)” value ([18]; 250 g ai/ha) was 95. For the same molecule, the “CHEAL phytotoxicity rating (0-100 scale)” value ([19]; 125 g ai/ha) was 100, the “CHEAL phytotoxicity rating (0-100 scale)” value ([19]; 250 g ai/ha) was 100 and the “DIGSA phytotoxicity rating (0-100 scale)” value ([20]; 125 g ai/ha) was 90. The “DIGSA phytotoxicity rating (0-100 scale)” value ([20]; 250 g ai/ha) was 98, the “AMARE phytotoxicity rating (0-100 scale)” value ([21]; 125 g ai/ha) was 100 and the “AMARE phytotoxicity rating (0-100 scale)” value ([21]; 250 g ai/ha) was 100. For the same molecule, the “CASOB phytotoxicity rating (0-100 scale)” value ([22]; 125 g ai/ha) was 100, the “CASOB phytotoxicity rating (0-100 scale)” value ([22]; 250 g ai/ha) was 100 and the “ABUTH phytotoxicity rating (0-100 scale)” value ([23]; 125 g ai/ha) was 100. For the same molecule, the “ABUTH phytotoxicity rating (0-100 scale)” value ([23]; 250 g ai/ha) was 100, the “CORN crop damage” value ([24]; 125 g ai/ha) was 10 and the “CORN crop damage” value ([24]; 250 g ai/ha) was 20. The “SOY crop damage” value ([25]; 125 g ai/ha) was 95, the “SOY crop damage” value ([25]; 250 g ai/ha) was 100 and the “RICE crop damage” value ([26]; 125 g ai/ha) was 90. The “RICE crop damage” value ([26]; 250 g ai/ha) was 95.
